# Assay results from patent US20230286970A1, “NOVEL OXADIAZOLE-BASED SELECTIVE HDAC6 INHIBITORS” (ITALFARMACO S.P.A., priority 2020, published 2023).
# What was measured:
# [1] = target: recombinant human HDAC1 (Homo sapiens (Human), UniProt Q13547); experiment: Enzymatic screening, HDAC1 inhibition (fluorogenic FdL_G substrate); type: biochemical
# Method in brief: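 Recombinant human HDAC1 inhibition was measured fluorometrically using the FLUOR DE LYS-Green (FdL_G) substrate. Compounds at 8 doses (1% DMSO final) in Tris-HCl pH 8 buffer with NaCl, Tween-20 and glycerol were preincubated in triplicate with enzyme and 1 mg/mL BSA, then given substrate. Developer I plus 2 μM TSA was added, and fluorescence read after 25 minutes in the dark.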
# [2] = target: recombinant human HDAC6 (Homo sapiens (Human), UniProt Q9UBN7); experiment: Enzymatic screening, HDAC6 inhibition (fluorogenic FdL_G substrate); type: biochemical
# recombinant human HDAC6, sequence (Q9UBN7 whole entry): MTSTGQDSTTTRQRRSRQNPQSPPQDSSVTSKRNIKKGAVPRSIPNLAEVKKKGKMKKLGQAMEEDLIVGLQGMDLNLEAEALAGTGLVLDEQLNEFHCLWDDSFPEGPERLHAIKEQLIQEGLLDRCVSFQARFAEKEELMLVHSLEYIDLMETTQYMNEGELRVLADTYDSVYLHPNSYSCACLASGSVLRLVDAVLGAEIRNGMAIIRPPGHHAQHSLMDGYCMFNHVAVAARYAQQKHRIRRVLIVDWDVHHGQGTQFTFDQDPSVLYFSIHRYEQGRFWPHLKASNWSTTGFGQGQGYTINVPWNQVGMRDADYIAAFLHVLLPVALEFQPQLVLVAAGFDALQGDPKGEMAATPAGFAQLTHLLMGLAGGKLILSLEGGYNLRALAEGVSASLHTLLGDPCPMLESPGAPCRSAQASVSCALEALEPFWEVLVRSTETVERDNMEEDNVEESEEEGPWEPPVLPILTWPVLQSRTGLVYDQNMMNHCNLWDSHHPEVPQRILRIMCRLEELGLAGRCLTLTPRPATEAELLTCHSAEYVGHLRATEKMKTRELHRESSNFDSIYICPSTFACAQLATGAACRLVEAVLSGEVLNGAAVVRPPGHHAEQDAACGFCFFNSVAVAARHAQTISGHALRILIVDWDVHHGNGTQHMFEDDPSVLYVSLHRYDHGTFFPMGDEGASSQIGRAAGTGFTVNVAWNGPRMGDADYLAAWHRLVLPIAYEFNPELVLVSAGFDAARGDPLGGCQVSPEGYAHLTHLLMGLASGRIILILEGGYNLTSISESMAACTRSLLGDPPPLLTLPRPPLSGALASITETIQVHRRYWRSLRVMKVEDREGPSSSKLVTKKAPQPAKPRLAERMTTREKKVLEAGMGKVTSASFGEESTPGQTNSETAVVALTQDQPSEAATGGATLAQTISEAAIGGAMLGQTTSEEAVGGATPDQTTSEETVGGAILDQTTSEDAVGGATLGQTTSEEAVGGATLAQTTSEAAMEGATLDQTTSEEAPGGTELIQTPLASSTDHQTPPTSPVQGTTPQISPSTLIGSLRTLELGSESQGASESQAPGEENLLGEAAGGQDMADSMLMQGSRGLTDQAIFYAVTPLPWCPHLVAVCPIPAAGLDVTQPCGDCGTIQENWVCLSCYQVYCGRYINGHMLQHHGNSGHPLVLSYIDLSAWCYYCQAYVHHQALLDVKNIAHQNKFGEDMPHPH
# Method in brief: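 Enzyme was preincubated with compound (8 doses, triplicate, 1% DMSO) in 25 mM Tris-HCl pH 8, 130 mM NaCl, 0.05% Tween-20, 10% glycerol, with BSA. A FLUOR DE LYS-Green substrate was then added, and fluorescence was read after developer plus 2 μM TSA.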
# recombinant human HDAC1, sequence (Q13547 whole entry): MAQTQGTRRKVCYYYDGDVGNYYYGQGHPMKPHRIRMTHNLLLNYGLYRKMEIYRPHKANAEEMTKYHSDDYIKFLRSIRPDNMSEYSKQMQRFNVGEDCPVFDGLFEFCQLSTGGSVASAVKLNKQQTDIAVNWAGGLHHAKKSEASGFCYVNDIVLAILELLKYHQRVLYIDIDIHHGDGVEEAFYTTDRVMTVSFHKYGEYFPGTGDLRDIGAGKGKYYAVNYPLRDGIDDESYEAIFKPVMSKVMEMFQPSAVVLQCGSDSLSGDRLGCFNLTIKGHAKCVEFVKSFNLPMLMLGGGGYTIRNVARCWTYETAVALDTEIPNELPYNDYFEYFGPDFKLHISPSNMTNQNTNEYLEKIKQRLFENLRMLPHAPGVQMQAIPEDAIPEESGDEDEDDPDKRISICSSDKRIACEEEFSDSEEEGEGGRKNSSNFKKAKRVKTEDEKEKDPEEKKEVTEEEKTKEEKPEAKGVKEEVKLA
Compound,IC50 [1] [nM],IC50 [2] [nM]
"CN1CCN(C(=O)Nc2cccc(-c3cn(Cc4ccc(-c5nnc(C(F)F)o5)cc4)nn3)c2)CC1 [compound 146, N-(3-(1-(4-(5-(difluoromethyl)-1,3,4-oxadiazol-2-yl)benzyl)-1H-1,2,3-triazol-4-yl)phenyl)-4-methylpiperazine-1-carboxamide]",> 200000,62
"O=C(c1cccc(-c2nnn(Cc3ccc(-c4nnc(C(F)F)o4)cc3)n2)c1)N1CCOCC1 [compound 120, (3-(2-(4-(5-(difluoromethyl)-1,3,4-oxadiazol-2-yl)benzyl)-2H-tetrazol-5-yl)phenyl)(morpholino)methanone]",> 200000,45
"CNc1ccc(-c2nnn(Cc3ccc(-c4nnc(C(F)F)o4)cc3)n2)cc1NC(=O)N1CCOCC1 [compound 176, N-(5-(2-(4-(5-(difluoromethyl)-1,3,4-oxadiazol-2-yl)benzyl)-2H-tetrazol-5-yl)-2-(methylamino)phenyl)morpholine-4-carboxamide]",> 200000,88
"Nc1ccc(-c2cn(Cc3c(F)cc(-c4nnc(C(F)F)o4)cc3F)nn2)cc1 [compound 296, 4-(1-(4-(5-(difluoromethyl)-1,3,4-oxadiazol-2-yl)-2,6-difluorobenzyl)-1H-1,2,3-triazol-4-yl)aniline]",> 200000,34
"Nc1nc2ccc(-c3cn(Cc4ccc(-c5nnc(C(F)F)o5)cn4)cn3)cc2s1 [compound 307, 6-[1-[[5-[5-(difluoromethyl)-1,3,4-oxadiazol-2-yl]pyridin-2-yl]methyl]imidazol-4-yl]-1,3-benzothiazol-2-amine]",> 1e+06,11
"FC(F)c1nnc(-c2ccc(Cn3cc(-c4ccc5nc(N6CCCC6)[nH]c5c4)nn3)cc2)o1 [compd. 190, 2-(difluoromethyl)-5-(4-((4-(2-(pyrrolidin-1-yl)-1H-benzo[d]imidazol-6-yl)-1H-1,2,3-triazol-1-yl)methyl)phenyl)-1,3,4-oxadiazole]",> 200000,99
"CC1(C)CN(c2cccc(-c3cn(Cc4c(F)cc(-c5nnc(C(F)F)o5)cc4F)nn3)c2)C1=O [compound 92, 1-(3-(1-(4-(5-(difluoromethyl)-1,3,4-oxadiazol-2-yl)-2,6-difluorobenzyl)-1H-1,2,3-triazol-4-yl)phenyl)-3,3-dimethylazetidin-2-one]",> 200000,35
"Nc1nc2ccc(-c3cc(Cc4ccc(-c5nnc(C(F)F)o5)cc4)on3)cc2s1 [compd. 366, 6-[5-[[4-[5-(difluoromethyl)-1,3,4-oxadiazol-2-yl]phenyl]methyl]-1,2-oxazol-3-yl]-1,3-benzothiazol-2-amine]",> 1e+06,297
"Cn1c(N)nc2cc(-c3nnnn3Cc3ncc(-c4nnc(C(F)F)o4)cn3)ccc21 [compound 291, 5-(1-((5-(5-(difluoromethyl)-1,3,4-oxadiazol-2-yl)pyrimidin-2-yl)methyl)-1H-tetrazol-5-yl)-1-methyl-1H-benzo[d]imidazol-2-amine]",> 200000,129
"Nc1ccc(-c2cc(Cc3ccc(-c4nnc(C(F)F)o4)cc3)on2)cn1 [Compd. 202, 5-(5-(4-(5-(difluoromethyl)-1,3,4-oxadiazol-2-yl)benzyl)isoxazol-3-yl)pyridin-2-amine]",> 200000,116

# More lines, now with the values ahead:
IC50 [1] [nM],IC50 [2] [nM],Compound
> 1e+06,14,"Cn1c(N)nc2cc(-c3cn(Cc4ccc(-c5nnc(C(F)F)o5)cn4)cn3)ccc21 [compound 328, 5-[1-[[5-[5-(difluoromethyl)-1,3,4-oxadiazol-2-yl]pyridin-2-yl]methyl]imidazol-4-yl]-1-methylbenzimidazol-2-amine]"
> 200000,20,"Nc1ccc(-c2nnn(Cc3c(F)cc(-c4nnc(C(F)F)o4)cc3F)n2)cn1 [compound 45, 5-(2-(4-(5-(difluoromethyl)-1,3,4-oxadiazol-2-yl)-2,6-difluorobenzyl)-2H-tetrazol-5-yl)pyridin-2-amine]"
1e+06,136,"CNc1ccc2cc(-c3nnn(Cc4ccc(-c5nnc(C(F)F)o5)c(F)c4F)n3)ccc2n1 [compound 407, 6-(2-(4-(5-(difluoromethyl)-1,3,4-oxadiazol-2-yl)-2,3-difluorobenzyl)-2H-tetrazol-5-yl)-N-methylquinolin-2-amine]"
> 200000,43,"CCNc1cccc(-c2cn(Cc3c(F)cc(-c4nnc(C(F)F)o4)cc3F)nn2)c1 [compound 114, 3-(1-(4-(5-(difluoromethyl)-1,3,4-oxadiazol-2-yl)-2,6-difluorobenzyl)-1H-1,2,3-triazol-4-yl)-N-ethylaniline]"
> 200000,298,"FC(F)c1nnc(-c2ccc(Cn3nnc(Cc4ccccn4)n3)cc2)o1 [compound 251, 2-(difluoromethyl)-5-(4-((5-(pyridin-2-ylmethyl)-2H-tetrazol-2-yl)methyl)phenyl)-1,3,4-oxadiazole]"
> 200000,118,"O=C1CCc2ccc(-c3nnn(Cc4ccc(-c5nnc(C(F)F)o5)cc4)n3)cc21 [compound 203, 6-(2-(4-(5-(difluoromethyl)-1,3,4-oxadiazol-2-yl)benzyl)-2H-tetrazol-5-yl)-2,3-dihydro-1H-inden-1-one]"
> 1e+06,62,"Fc1c(Cn2nnc(-c3cccc(-c4nc5c([nH]4)CCNC5)c3)n2)ccc(-c2nnc(C(F)F)o2)c1F [compound 355, 2-(difluoromethyl)-5-[2,3-difluoro-4-[[5-[3-(4,5,6,7-tetrahydro-1H-imidazo[4,5-c]pyridin-2-yl)phenyl]tetrazol-2-yl]methyl]phenyl]-1,3,4-oxadiazole]"
> 200000,34,"O=C(Nc1ccc(-c2cn(Cc3ncc(-c4nnc(C(F)F)o4)cn3)nn2)cn1)C(F)F [Compd. 88, N-(5-(1-((5-(5-(difluoromethyl)-1,3,4-oxadiazol-2-yl)pyrimidin-2-yl)methyl)-1H-1,2,3-triazol-4-yl)pyridin-2-yl)-2,2-difluoroacetamide]"
> 1e+06,26,"O=C1Cc2cc(-c3cn(Cc4ccc(-c5nnc(C(F)F)o5)cn4)nn3)ccc2N1 [compound 325, 5-[1-[[5-[5-(difluoromethyl)-1,3,4-oxadiazol-2-yl]pyridin-2-yl]methyl]triazol-4-yl]-1,3-dihydroindol-2-one]"
1e+06,125,"CNc1ccc2cc(-c3nnn(Cc4c(F)cc(-c5nnc(C(F)F)o5)cc4F)n3)ccc2n1 [compound 388, 6-(2-(4-(5-(difluoromethyl)-1,3,4-oxadiazol-2-yl)-2,6-difluorobenzyl)-2H-tetrazol-5-yl)-N-methylquinolin-2-amine]"
> 200000,50,"Nc1cccc(-c2nnn(Cc3ccc(-c4nnc(C(F)F)o4)cc3)n2)c1 [compound 129, 3-[2-[[4-[5-(difluoromethyl)-1,3,4-oxadiazol-2-yl]phenyl]methyl]tetrazol-5-yl]aniline]"
> 200000,138,"Cn1c(=O)[nH]c2cc(-c3nnn(Cc4ccc(-c5nnc(C(F)F)o5)cc4)n3)ccc21 [compound 210, 5-(2-(4-(5-(difluoromethyl)-1,3,4-oxadiazol-2-yl)benzyl)-2H-tetrazol-5-yl)-1-methyl-1,3-dihydro-2H-benzo[d]imidazol-2-one]"
